Laboratory results from DBAASP.

What was measured:
[1] = tested on: Bacillus subtilis IFO 3336; test: ≥ marks a high value that may be exact or a test limit, other limits are often not marked, values filed in µg/mL are converted to µM
[2] = tested on: Escherichia coli IFO 3301; test: as above

## NCC(=O)N[C@@H](Cc1cnc[nH]1)C(=O)NCC(=O)N[C@@H](Cc1cnc[nH]1)C(=O)NCC(=O)N[C@@H](Cc1cnc[nH]1)C(=O)NCC(=O)N[C@@H](Cc1cnc[nH]1)C(=O)NCC(=O)N[C@@H](Cc1cnc[nH]1)C(=O)O [GHGHGHGHGH]
[1]
  MIC: ≥ 506 µM
[2]
  MIC: ≥ 506 µM
